# Source: US20080139673A1, “POTENTIATION OF ANTIFUNGAL COMPOUNDS” (MethylGene Inc., priority 2006, published 2008)
# Read-outs that look alike come from different tables or passages of the source.
# Columns and labels:
# [1] = system: WT/ScHOS2 and Δhos2/ScHOS2; experiment: MIC80 testing (CLSI M27-A2), complementation of Δhos2 by recombinant ScHos2p; format: cell-based, S. cerevisiae; conditions: 72 hours, 30° C., FIG. 14
# Protocol: Minimum inhibitory concentration (MIC) testing was performed according to CLSI M27-A2 method for yeast testing using CSM-URA medium (Complete Synthetic Medium minus Uracile) containing either 2% raffinose or 1% raffinose+1% galactose as the carbon source. Itraconazole concentrations ranged from […]. Log-phase cells grown in CSM-URA+2% raffinose or CSM-URA+1% raffinose+1% galactose were inoculated at 5×10^3 cells/ml. The MIC80 of itraconazole was determined after 72 hours growth at 30° C.
# ScHOS2 deletion mutant = experiment: Serial dilution sensitivity of yeast deletion strain to antifungal agents; format: cell-based, S. cerevisiae; conditions: FIGS. 4-12
# From the text: (§1) Standard serial dilution techniques were used to determine sensitivity of yeast deletion strains to various antifungal agents.
# ScRPD3 deletion mutant = experiment: as above; format: cell-based, S. cerevisiae; conditions: FIG. 3
# From the text: as §1
# HosB = conditions: cited from earlier work
# C. albicans = conditions: cited from earlier work
# Candida glabrata = conditions: cited from earlier work
# A. nidulans Hda1 enzyme = conditions: cited from earlier work
# recombinant Hos2p.V5His6 = molecular target: T1, recombinant Hos2p.V5His6 (Saccharomyces cerevisiae, UniProt P53096); experiment: HDAC assay with purified recombinant Hos2p.V5His6 fractions; format: biochemical, S. cerevisiae; conditions: for IC50: read-out: IC50 (ug/ml)
# T1 construct: YGL194C/HOS2 from S. cerevisiae (residues 1-452 upstream the stop codon); made in house; host or cells: S. cerevisiae BY4742 or isogenic Δhos2 strain carrying pYES2.1.HOS2.V5His6 #7, galactose-induced
# Protocol: The induction of Hos2p.V5His6 expression by galactose was performed using either glucose or raffinose as the carbon source (pYES2.1 TOPO TA Expression Kit Manual, Invitrogen, cat. # K4150-01), Cell lysates were prepared from spheroplasts that had been generated from strains BY4742/pYES2.1.HOS2.V5His6 # 7 and Δhos2/pYES2.1.HOS2.V5His6 #7 grown in the presence or in the absence of galactose. Spheroplasts were prepared from cells that were grown in YEPD (BY4742, Δhos2), SC-URA+2% glucose or raffinose or SC-URA+1% glucose or raffinose+1% galactose (BY4742/pYES2.1.HOS2.V5His6 # 7 and Δhos2/pYES2.1.HOS2.V5His6 #7) by the lyticase method of Franzusoff et al. (1991). The collection of fractions containing or not Hos2pV5His6 was performed by IMAC using the H is GraviTrap Affinity Columns (GE Healthcare cat. # 11-033-99). Binding buffer was as recommended by the manufacturer, whereas three different elution buffers were used sequentially: 20 mM sodium phosphate+500 mM NaCl+100 mM, 250 mM or 500 mM imidazole, pH 7.4. Fractions were further desalted using PD-10 (GE Healthcare, cat. # 17-0851-01) and NAP-5 (GE Healthcare, cat. # 17-0853-02) desalting columns. Fractions that were eluted with the three different buffers containing 100, 250 or 500 mM imidazole, pH 7.4 and desalted were assayed for HDAC activity (see below). Only the corresponding fractions containing significant intrinsic HDAC activity (20 mM sodium phosphate+500 mM NaCl+250 mM imidazole) were kept for further studies.
# Fractions containing the recombinant Hos2p.V5His6 were incubated for 2 h with or without HDAC inhibitor (0-20 μg/ml). The HDAC activity that was specifically associated with the recombinant Hos2p.V5His6 expressed following galactose induction was determined assuming that
# FluoHos2p.V5His6 specific=Fluo+galactose−Fluo−galactose
# where Fluo+galactose=HDAC activity associated with all HDACs copurified along with Hos2p.V5His6 Fluo+glucose=HDAC activity associated with all HDACs copurified in the absence of Hos2p.V5His6
# T1 sequence (P53096 whole entry, the tested form may be a part): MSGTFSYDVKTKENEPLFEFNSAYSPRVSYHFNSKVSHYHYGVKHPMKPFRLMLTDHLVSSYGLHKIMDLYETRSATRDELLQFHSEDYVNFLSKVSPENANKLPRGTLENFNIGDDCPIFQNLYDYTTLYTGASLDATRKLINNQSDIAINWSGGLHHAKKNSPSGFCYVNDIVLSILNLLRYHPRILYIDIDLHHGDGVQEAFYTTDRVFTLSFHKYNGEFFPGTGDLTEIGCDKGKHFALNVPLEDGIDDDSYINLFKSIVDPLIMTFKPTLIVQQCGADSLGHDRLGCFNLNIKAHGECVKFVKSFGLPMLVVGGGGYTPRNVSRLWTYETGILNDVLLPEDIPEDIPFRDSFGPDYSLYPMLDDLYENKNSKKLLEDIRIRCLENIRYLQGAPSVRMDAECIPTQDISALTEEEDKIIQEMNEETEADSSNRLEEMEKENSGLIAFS
smiles,measurement,setting,value
CCC(C)n1ncn(-c2ccc(N3CCN(c4ccc(OCC5COC(Cn6cncn6)(c6ccc(Cl)cc6Cl)O5)cc4)CC3)cc2)c1=O (stereo not drawn) [itraconazole],difference in sensitivity (MIC80) between WT/ScHOS2 and Δhos2/ScHOS2,[1]; expression of Hos2 induced by galactose,2 fold
same,difference in sensitivity (MIC80) between WT/ScHOS2 and Δhos2/ScHOS2,[1]; grown in the presence of raffinose,4 fold
C[C@@H]1[C@H](O)[C@@H](C)/C=C/C=C/C=C/C=C/C=C/C=C/C=C/[C@H](O[C@@H]2O[C@H](C)[C@@H](O)[C@H](N)[C@@H]2O)C[C@@H]2O[C@](O)(C[C@@H](O)C[C@@H](O)[C@H](O)CC[C@@H](O)C[C@@H](O)CC(=O)O[C@H]1C)C[C@H](O)[C@H]2C(=O)O [Amphotericin B],hypersensitivity of ScHOS2 deletion mutant to antifungal agent,ScHOS2 deletion mutant,not hypersensitive
OC(Cn1cncn1)(Cn1cncn1)c1ccc(F)cc1F [fluconazole],hypersensitivity of ScHOS2 deletion mutant to antifungal agent,ScHOS2 deletion mutant,hypersensitive
same,hypersensitivity of ScRPD3 deletion mutant to antifungal agent,ScRPD3 deletion mutant,not hypersensitive
CC(=O)N1CCN(c2ccc(OCC3COC(Cn4ccnc4)(c4ccc(Cl)cc4Cl)O3)cc2)CC1 (stereo not drawn) [ketoconazole],hypersensitivity of ScHOS2 deletion mutant to antifungal agent,ScHOS2 deletion mutant,hypersensitive
same,hypersensitivity of ScRPD3 deletion mutant to antifungal agent,ScRPD3 deletion mutant,not hypersensitive
Nc1nc(=O)[nH]cc1F [5-fluorocytosine],hypersensitivity of ScHOS2 deletion mutant to antifungal agent,ScHOS2 deletion mutant,not hypersensitive
C[C@@H](c1ncncc1F)[C@](O)(Cn1cncn1)c1ccc(F)cc1F [voriconazole],hypersensitivity of ScHOS2 deletion mutant to antifungal agent,ScHOS2 deletion mutant,hypersensitive
CN(C/C=C/C#CC(C)(C)C)Cc1cccc2ccccc12 [terbinazine],hypersensitivity of ScHOS2 deletion mutant to antifungal agent,ScHOS2 deletion mutant,not hypersensitive
CC(Cc1ccc(C(C)(C)C)cc1)CN1C[C@@H](C)O[C@@H](C)C1 (stereo partly drawn) [fenpropimorph],hypersensitivity of ScHOS2 deletion mutant to antifungal agent,ScHOS2 deletion mutant,hypersensitive
C[C@@H]1NC(=O)[C@H]2CCCN2C(=O)[C@H](CCCCCC(=O)[C@@H]2CO2)NC(=O)[C@@H](C)NC1=O [HC toxin],sensitivity of the enzyme to the HDAC inhibitor,HosB,highly resistant
"CC(/C=C/C(=O)NO)=C\[C@@H](C)C(=O)c1ccc(N(C)C)cc1 [TSA, trichostatin A]",ability to enhance the sensitivity to azole antifungal agents,C. albicans,able to enhance the sensitivity
same,ability to enhance the sensitivity to azole antifungal agents,Candida glabrata,not found to enhance the sensitivity
same,sensitivity of the enzyme to the HDAC inhibitor,HosB,highly resistant
same,sensitivity of the enzyme to the HDAC inhibitor,A. nidulans Hda1 enzyme,highly sensitive
O=C(Cc1ccc(CCCCc2ccccc2)cc1)NO [Compound 4],IC50,recombinant Hos2p.V5His6; Hos2 from S. cerevisiae BY4742/HOS2.V5His6 grown in glucose (GAL1 repressed) or galactose (induced),~14.1 µM
same,IC50,recombinant Hos2p.V5His6; Hos2 from S. cerevisiae BY4742/HOS2.V5His6 grown in raffinose (GAL1 repressed) or galactose (induced),~10.6 µM
same,inhibition at 5 µg/mL,"recombinant Hos2p.V5His6; read-out: % inhibition at 5 μg/ml, Hos2 from S. cerevisiae BY4742/HOS2.V5His6 grown in glucose (GAL1 repressed) or galactose (induced), 5 μg/ml, 2 h",60.7%
same,inhibition at 5 µg/mL,"recombinant Hos2p.V5His6; read-out: % inhibition at 5 μg/ml, Hos2 from S. cerevisiae BY4742/HOS2.V5His6 grown in raffinose (GAL1 repressed) or galactose (induced), 5 μg/ml, 2 h",61.2%
same,inhibition at 5 µg/mL,"recombinant Hos2p.V5His6; read-out: % inhibition at 5 μg/ml, Hos2 from S. cerevisiae Δhos2/HOS2.V5His6 grown in glucose (GAL1 repressed) or galactose (induced), 5 μg/ml, 2 h",55.2%
same,IC50,recombinant Hos2p.V5His6; Hos2 from S. cerevisiae Δhos2/HOS2.V5His6 grown in glucose (GAL1 repressed) or galactose (induced),~15.9 µM
same,inhibition at 5 µg/mL,"recombinant Hos2p.V5His6; read-out: inhibition of purified Hos2 protein, 5 ug/ml, summary of Table 1",> 60%
C[C@@H]([C@H](N)C(=O)N[C@H](C(=O)O)[C@H]1O[C@@H](n2ccc(=O)[nH]c2=O)[C@H](O)[C@@H]1O)[C@H](O)c1ccc(O)cn1 [nikkomycin],hypersensitivity of ScHOS2 deletion mutant to antifungal agent,ScHOS2 deletion mutant,not hypersensitive
